Legend:
CCF-STTG1 (astrocytoma) = assay: Net production of TRP metabolites in media samples, CCF-STTG1; format: cell-based, human
Source text: (§1) Under physiological conditions in the brain, kynurenine metabolism is driven by microglial cells and astrocytes with preferential production of QUIN and KA respectively. […] This may have been due to T cells producing cytokines and/or intermediate metabolites that are further metabolized to QUIN by the cells. In order to identify specific factors that may lead to tryptophan-kynurenine pathway up-regulation for QUIN production, we tested a panel of cytokine and chemokines implicated in NTX and CRS. […] We initially evaluated the panel of the select factors individually (FIGS. 16 A-B). We selected several cytokines based on their effect on rate-limiting enzymes for QUIN production. These included IFNγ, TNF, […], CXCL10 and […]. These enzymes were selected based on their regulation of key enzymes, KMO and KYNU, which may lead to supraphysiological accumulation of QUIN. These factors were further evaluated, individually or in combination, on astrocytoma, microglial, and primary monocyte-derived macrophages for mRNA levels of kynurenine pathway enzymes and kynurenine metabolites production (FIG. 17).

BV173 (B-ALL) = assay: Net production of TRP metabolites in media samples, BV173; format: cell-based
ALL3.1 (B-ALL) = assay: Net production of TRP metabolites in media samples, ALL3.1; format: cell-based
SUP-B15 (B-ALL) = assay: Net production of TRP metabolites in media samples, SUP-B15; format: cell-based
DOAY (medulloblastoma) = assay: Net production of TRP metabolites in media samples, DOAY; format: cell-based
HCN2 (cortical neuron) = assay: Net production of TRP metabolites in media samples, HCN2; format: cell-based
HMC3 (microglia) = assay: Net production of TRP metabolites in media samples, HMC3; format: cell-based, human
Source text: as §1

KARPAS231 (B-ALL) = assay: Net production of TRP metabolites in media samples, KARPAS231; format: cell-based
RS4; 11 (B-ALL) = assay: Net production of TRP metabolites in media samples, RS4; 11; format: cell-based
THP-1 (monocyte) = assay: Net production of TRP metabolites in media samples, THP-1; format: cell-based
CCRF-SB (B-ALL) = assay: Net production of TRP metabolites in media samples, CCRF-SB; format: cell-based

IFNα was tested, and the “Net production of TRP metabolites in media samples: 3-HK” value (from here on “Net production … 3-HK”) (CCF-STTG1 (astrocytoma)) was −13.12 ± 0.55, the “Net production of TRP metabolites in media samples: HAA” value (“Net production … HAA” below) (CCF-STTG1 (astrocytoma)) was 10.54 ± 0.8 and the “Net production of TRP metabolites in media samples: KA” value (from here on “Net production … KA”) (CCF-STTG1 (astrocytoma)) was 3.46 ± 1. The “Net production of TRP metabolites in media samples: KYN” value (from here on “Net production … KYN”) (CCF-STTG1 (astrocytoma)) was 4734.38 ± 128, the “Net production of TRP metabolites in media samples: QUIN” value (shortened to “Net production … QUIN”) (CCF-STTG1 (astrocytoma)) was 15.16 ± 5.5 and the “Net production … 3-HK” value (BV173 (B-ALL)) was 9.94 ± 8.7. For the same substance, the “Net production … KA” value (BV173 (B-ALL)) was −3.56 ± 4.1, the “Net production … KYN” value (BV173 (B-ALL)) was 257.66 ± 175.9 and the “Net production … QUIN” value (BV173 (B-ALL)) was 6.36 ± 32.9. The “Net production … 3-HK” value (ALL3.1 (B-ALL)) was 6.76 ± 6.7, the “Net production … KA” value (ALL3.1 (B-ALL)) was −1.1 ± 3.4 and the “Net production … KYN” value (ALL3.1 (B-ALL)) was 49.4 ± 114.2. For the same substance, the “Net production … QUIN” value (ALL3.1 (B-ALL)) was −55.38 ± 21.2, the “Net production … 3-HK” value (SUP-B15 (B-ALL)) was 19.38 ± 16.3 and the “Net production … HAA” value (SUP-B15 (B-ALL)) was 7.32 ± 1.1. The “Net production … KA” value (SUP-B15 (B-ALL)) was −10.36 ± 4.4, the “Net production … KYN” value (SUP-B15 (B-ALL)) was 292.4 ± 186.6 and the “Net production … QUIN” value (SUP-B15 (B-ALL)) was −79.6 ± 31.2. The “Net production … 3-HK” value (DOAY (medulloblastoma)) was −13.46 ± 0.5, the “Net production … HAA” value (DOAY (medulloblastoma)) was 11.62 ± 0.8 and the “Net production … KA” value (DOAY (medulloblastoma)) was 10.28 ± 3.2. The “Net production … KYN” value (DOAY (medulloblastoma)) was 263.2 ± 20^, the “Net production … QUIN” value (DOAY (medulloblastoma)) was 54.5 ± 21.8 and the “Net production … 3-HK” value (HCN2 (cortical neuron)) was −4.46 ± 8.2. The “Net production … HAA” value (HCN2 (cortical neuron)) was 5.38 ± 0.4, the “Net production … KA” value (HCN2 (cortical neuron)) was 3.26 ± 6.1 and the “Net production … KYN” value (HCN2 (cortical neuron)) was 105.24 ± 37. The “Net production … QUIN” value (HCN2 (cortical neuron)) was 13.26 ± 31.6, the “Net production … 3-HK” value (HMC3 (microglia)) was 10.4 ± 18.6 and the “Net production … HAA” value (HMC3 (microglia)) was 0.56 ± 1.8. The “Net production … KA” value (HMC3 (microglia)) was 4.48 ± 3.1, the “Net production … KYN” value (HMC3 (microglia)) was 899.26 ± 383^ and the “Net production … QUIN” value (HMC3 (microglia)) was 42 ± 18.5. The “Net production … 3-HK” value (KARPAS231 (B-ALL)) was 5.48 ± 2.1, the “Net production … HAA” value (KARPAS231 (B-ALL)) was 30.76 ± 4.2 and the “Net production … KA” value (KARPAS231 (B-ALL)) was −9.3 ± 5.1. For the same substance, the “Net production … KYN” value (KARPAS231 (B-ALL)) was 200.48 ± 77.6, the “Net production … QUIN” value (KARPAS231 (B-ALL)) was −42.74 ± 33.3 and the “Net production … 3-HK” value (RS4; 11 (B-ALL)) was −1.96 ± 1.6. For the same substance, the “Net production … KA” value (RS4; 11 (B-ALL)) was −6.3 ± 2.3, the “Net production … KYN” value (RS4; 11 (B-ALL)) was −14 ± 22.7 and the “Net production … QUIN” value (RS4; 11 (B-ALL)) was 40.46 ± 24^. The “Net production … 3-HK” value (THP-1 (monocyte)) was 0.62 ± 1.4, the “Net production … KA” value (THP-1 (monocyte)) was −8.98 ± 2.2 and the “Net production … KYN” value (THP-1 (monocyte)) was 101.24 ± 17.6. For the same substance, the “Net production … QUIN” value (THP-1 (monocyte)) was 12.08 ± 32.1, the “Net production … 3-HK” value (CCRF-SB (B-ALL)) was 1.16 ± 6.5 and the “Net production … HAA” value (CCRF-SB (B-ALL)) was 5.3 ± 0.2. The “Net production … KA” value (CCRF-SB (B-ALL)) was −6.78 ± 4^, the “Net production … KYN” value (CCRF-SB (B-ALL)) was 93.56 ± 90.1 and the “Net production … QUIN” value (CCRF-SB (B-ALL)) was −47.16 ± 28.1.

IFNγ: cytokine was tested, and the “Net production … 3-HK” value (CCF-STTG1 (astrocytoma)) was −12.24 ± 1.2, the “Net production … HAA” value (CCF-STTG1 (astrocytoma)) was 8.88 ± 0.2 and the “Net production … KA” value (CCF-STTG1 (astrocytoma)) was 8.2 ± 2.9. The “Net production … KYN” value (CCF-STTG1 (astrocytoma)) was 12049.08 ± 526, the “Net production … QUIN” value (CCF-STTG1 (astrocytoma)) was 1.34 ± 16 and the “Net production … 3-HK” value (BV173 (B-ALL)) was 1.06 ± 2.6. For the same substance, the “Net production … KA” value (BV173 (B-ALL)) was −4.58 ± 5^, the “Net production … KYN” value (BV173 (B-ALL)) was 46.72 ± 51.1 and the “Net production … QUIN” value (BV173 (B-ALL)) was 6.54 ± 42.2. The “Net production … 3-HK” value (ALL3.1 (B-ALL)) was 8.76 ± 7.8, the “Net production … KA” value (ALL3.1 (B-ALL)) was −3.32 ± 3.4 and the “Net production … KYN” value (ALL3.1 (B-ALL)) was 55.94 ± 132. The “Net production … QUIN” value (ALL3.1 (B-ALL)) was 40.94 ± 140.3, the “Net production … 3-HK” value (SUP-B15 (B-ALL)) was 18.5 ± 14.8 and the “Net production … HAA” value (SUP-B15 (B-ALL)) was 6.92 ± 0.9. For the same substance, the “Net production … KA” value (SUP-B15 (B-ALL)) was −7.42 ± 3.2, the “Net production … KYN” value (SUP-B15 (B-ALL)) was 299.52 ± 209^ and the “Net production … QUIN” value (SUP-B15 (B-ALL)) was −70 ± 31. The “Net production … 3-HK” value (DOAY (medulloblastoma)) was −13.38 ± 1.5, the “Net production … HAA” value (DOAY (medulloblastoma)) was 10.66 ± 0.9 and the “Net production … KA” value (DOAY (medulloblastoma)) was 11.08 ± 0.9. For the same substance, the “Net production … KYN” value (DOAY (medulloblastoma)) was 6757.9 ± 129.3, the “Net production … QUIN” value (DOAY (medulloblastoma)) was 34.8 ± 7^ and the “Net production … 3-HK” value (HCN2 (cortical neuron)) was −4.84 ± 8.3. The “Net production … HAA” value (HCN2 (cortical neuron)) was 6.34 ± 1.1, the “Net production … KA” value (HCN2 (cortical neuron)) was 6.48 ± 4.8 and the “Net production … KYN” value (HCN2 (cortical neuron)) was 1597.26 ± 77. For the same substance, the “Net production … QUIN” value (HCN2 (cortical neuron)) was 25.26 ± 27.11, the “Net production … 3-HK” value (HMC3 (microglia)) was 20.8 ± 20.5 and the “Net production … HAA” value (HMC3 (microglia)) was 0.76 ± 3.3. The “Net production … KA” value (HMC3 (microglia)) was 48.46 ± 25.8, the “Net production … KYN” value (HMC3 (microglia)) was 45327.9 ± 11654 and the “Net production … QUIN” value (HMC3 (microglia)) was 55.88 ± 34^. For the same substance, the “Net production … 3-HK” value (KARPAS231 (B-ALL)) was 90.74 ± 9.3, the “Net production … HAA” value (KARPAS231 (B-ALL)) was 244.46 ± 24.4 and the “Net production … KA” value (KARPAS231 (B-ALL)) was −9.22 ± 3.8. For the same substance, the “Net production … KYN” value (KARPAS231 (B-ALL)) was 1247.28 ± 62.2, the “Net production … QUIN” value (KARPAS231 (B-ALL)) was −26.02 ± 27.3 and the “Net production … 3-HK” value (RS4; 11 (B-ALL)) was 0.12 ± 1.4. The “Net production … KA” value (RS4; 11 (B-ALL)) was −2.8 ± 7.2, the “Net production … KYN” value (RS4; 11 (B-ALL)) was 26.58 ± 19.7 and the “Net production … QUIN” value (RS4; 11 (B-ALL)) was −4.26 ± 37.4. For the same substance, the “Net production … 3-HK” value (THP-1 (monocyte)) was 1.78 ± 1.9, the “Net production … KA” value (THP-1 (monocyte)) was −7.14 ± 5.2 and the “Net production … KYN” value (THP-1 (monocyte)) was 2593.4 ± 153.7. The “Net production … QUIN” value (THP-1 (monocyte)) was −26.4 ± 68^, the “Net production … 3-HK” value (CCRF-SB (B-ALL)) was 1.9 ± 7.3 and the “Net production … HAA” value (CCRF-SB (B-ALL)) was 5.9 ± 0.5. The “Net production … KA” value (CCRF-SB (B-ALL)) was −8.3 ± 5.5, the “Net production … KYN” value (CCRF-SB (B-ALL)) was 410.1 ± 79.1 and the “Net production … QUIN” value (CCRF-SB (B-ALL)) was −53.44 ± 37.8.

Reference: patent publication US20210181179A1, “DIAGNOSIS AND TREATMENT OF IMMUNOTHERAPY-INDUCED NEUROTOXICITY” (MEMORIAL SLOAN KETTERING CANCER CENTER, priority 2018, published 2021)
